Laboratory results published in patent US20220387268A1, “OIL-IN-WATER MACROEMULSION” (SYMRISE AG, priority 2019, published 2022).

Experiments:
[1] = log P value (octanol:water); assay type: physicochemical; details: water/n-octanol
Description: The partition coefficient (P) is the ratio of concentrations of a compound in a mixture of two immiscible solvents at equilibrium. This ratio is therefore a comparison of the solubility of the solute in these two liquids. In the chemical and pharmaceutical sciences, both phases usually are solvents. Most commonly, one of the solvents is water, while the second is hydrophobic such as 1-octanol.
Log P=log 10(Partition Coefficient)
Partition Coefficient,P=[organic]/[aqueous]

water solubility = assay type: physicochemical; details: room temperature

| SMILES | log P [1] | Water solubility (water solubility) |
| --- | --- | --- |
| CC(C=O)Cc1ccc(C(C)C)cc1 (stereo not shown) | 3.91 | 17.8 µg/mL |
| CC(=O)OC1CCCCC1C(C)(C)C (stereo not shown) [AGRUMEX LC] | – | 17.6 µg/mL |
| CCCCCC1CCC(=O)O1 (stereo not shown) [ALDEHYD C18 SOG.] | – | 2373.1 µg/mL |
| C=CC(C)CCCC(C)(C)O (stereo not shown) [DIHYDROMYRCENOL] | 3.47 | 671.2 µg/mL |
| CCCC(=O)OC(C)(C)Cc1ccccc1 [DIMETHYLBENZYLCARBINYLBUTYRAT] | 4.43 | – |
| O=C1CCCCCCCCCCCC(=O)OCCO1 [ETHYLENBRASSYLAT] | 4.71 | 20.9 µg/mL |
| CCCCCC1C(=O)CCC1CC(=O)OC (stereo not shown) [HEDION] | – | 401.5 µg/mL |
| O=Cc1ccc2c(c1)OCO2 [HELIOTROPIN/PIPERONAL] | 1.77 | 2260.1 µg/mL |
| CCCCCC/C(C=O)=C\c1ccccc1 [HEXYLZIMTALDEHYD ALPHA] | 4.82 | 1.2 µg/mL |
| CCC(C)(O)CCCC(C)C (stereo not shown) [TETRAHYDROLINALOOL] | 3.6 | 492.4 µg/mL |
